# ± gives the expanded uncertainty stated by the source.
# Columns and labels:
# [1] = xn = mol fraction of the nth substance listed; conditions: 298.15 K, 101 kPa, Liquid, Vibrating tube method
# [2] = 298.15 K; 101.33 kPa; Liquid; Vibrating tube method
# [3] = refractive index (Na D-line) (dimensionless); conditions: 298.15 K; 101.33 kPa; Liquid; Standard Abbe refractometry
smiles,measurement,setting,value
CCOS(=O)(=O)[O-].CCn1cc[n+](C)c1 [1-ethyl-3-methylimidazolium ethyl sulfate] + Cc1cccc(C)c1,mass density,[1]; x2 = 0.119,1212.69 ± 1.5 kg/m3
CCOS(=O)(=O)[O-].CCn1cc[n+](C)c1 [1-ethyl-3-methylimidazolium ethyl sulfate],mass density,[2],1237.23 ± 0.43 kg/m3
same,refractive index,[3],1.50591 ± 0.0004
CCOS(=O)(=O)[O-].CCn1cc[n+](C)c1 [1-ethyl-3-methylimidazolium ethyl sulfate] + CCCCCC,mass density,[1]; x2 = 0.015,1234.45 ± 1.5 kg/m3
CCOS(=O)(=O)[O-].CCn1cc[n+](C)c1 [1-ethyl-3-methylimidazolium ethyl sulfate] + Cc1ccc(C)cc1,mass density,[1]; x2 = 0.123,1210.97 ± 1.5 kg/m3
CCOS(=O)(=O)[O-].CCn1cc[n+](C)c1 [1-ethyl-3-methylimidazolium ethyl sulfate] + Cc1ccccc1C,mass density,[1]; x2 = 0.142,1207.74 ± 1.5 kg/m3
